This is an account of results in ChEMBL document CHEMBL5241105, “Natural Products with Potential for Nonhormonal Male Contraception” (J Nat Prod, 2021).

For one data set, the system named is Hamster. Kind of data set: Antifertility activity in hamster assessed as decrease in egg fertilization percentage at 0.70 to 1.05 mM (reference value: 93.6 +/- 3.12 %). In kind it is functional, Cricetinae. Set-up: scale not given: the % may be the effect or the level left. The settings on record: dose 0.7-1.05 mM; at 0.7 to 1.05 mM.
Data set [1] is filed under the species Rattus norvegicus. Kind of data set: Antifertility in male rat assessed as reduction in fertility relative to control. Set-up: scale not given: the % may be the effect or the level left. In kind it is functional.
For data set [2], the system named is Rattus norvegicus. Kind of data set: Antifertility activity in male Sprague-Dawley rat assessed as infertility at 100 microg/kg/day measured for 63 to 70 days relative to control. Type of data set: functional. The conditions noted are these: dose 100 µg/kg/day; time 63-70 day.
A further data set concerns Meriones unguiculatus. Kind of data set: Antifertility activity in gerbils assessed as inhibition of spermatid production at 25 mg/kg, po (reference value: 51.2 %). In kind it is functional. Set-up: scale not given: the % may be the effect or the level left.
The next data set has as its system Oryctolagus cuniculus. Kind of data set: Antifertility activity in rabbit assessed as inhibition of spermatid production at 25 mg/kg, po (reference value: 33.9 %). Set-up: scale not given: the % may be the effect or the level left. In kind it is functional.
Data set [3] is filed under the species Rattus norvegicus. Kind of data set: Antifertility activity in Sprague-Dawley rat assessed as reduction in cauda epididymal sperm count (reference value: 41.5 +/- 19.3 10^6/ml). Type of data set: functional.
The species named for data set [4] is Rattus norvegicus. Kind of data set: Antifertility activity in Sprague-Dawley rat assessed as motile sperm percentage (reference value: 85.7 +/- 16.9%). Type of data set: functional.
Data set [5] is filed under the species Rattus norvegicus. Kind of data set: Antifertility activity in Sprague-Dawley rat assessed as sperm with normal morphology (reference value: 77.2 +/- 16.9%). Type of data set: functional.
The nature of data set [6]: Toxicity in oral dosed rat assessed as median lethal dose. In kind it is organism-based. The settings on record: in vivo.
The subject of data set [7] is Rattus norvegicus. Kind of data set: Antifertility activity in rat assessed as decrease in fertility at 10 mg/kg administered daily relative to control. Type of data set: functional. Set-up: scale not given: the % may be the effect or the level left.
Data set [8] can be described thus: Toxicity in mouse assessed as median lethal dose. The conditions noted are these: in vivo.
Data set [9] is described as follows: Toxicity in rat assessed as median lethal dose. The conditions noted are these: in vivo.
For data set [10], the species on record is Mus musculus. Kind of data set: Antifertility against male C57BL/6J mouse assessed as infertility. In kind it is functional, organism-based.
Data set [11] concerns Mus musculus. Kind of data set: Antifertility activity in C57BL/6J male mouse assessed as head bend back deformation at 0.8 mg/kg administered via oral gavage for 4 weeks relative to control. Type of data set: functional.
Data set [12] has as its system Mus musculus. Kind of data set: Antifertility activity in C57BL/6J male mouse assessed as reduction in forward sperm motility at 0.8 mg/kg administered via oral gavage for 4 weeks relative to control. Type of data set: functional. Set-up: scale not given: the % may be the effect or the level left.
The species named for data set [13] is Mus musculus. Kind of data set: Antifertility activity in mouse assessed as reduction in testicular weight relative to control. Type of data set: functional. Set-up: scale not given: the % may be the effect or the level left.
For the next data set, the species on record is Homo sapiens. Kind of data set: Inhibition of calcium channel (unknown origin) at 2 mg/ml relative to control.
The test system of data set [14] is Rattus norvegicus. Kind of data set: Antifertility activity in male albino rat assessed as reduction in number of spermatids at 15 mg/kg administered daily relative to control. In kind it is functional. Set-up: scale not given: the % may be the effect or the level left.
Data set [15] has as its system Rattus norvegicus. Kind of data set: Antifertility activity in male albino rat assessed as reduction in sertoli cells at 15 mg/kg administered daily relative to control. Type of data set: functional. Set-up: scale not given: the % may be the effect or the level left.
Data set [16] concerns Rattus norvegicus. Kind of data set: Antifertility activity in male albino rat assessed as reduction in spermatids at 15 mg/kg administered daily relative to control. In kind it is functional. Set-up: scale not given: the % may be the effect or the level left.
For data set [17], the species on record is Rattus norvegicus. Kind of data set: Antifertility activity in albino rat assessed as inhibition of motility (reference value: 30.75 %). In kind it is functional. Set-up: scale not given: the % may be the effect or the level left.

As to `O=C(/C=C/C=C/c1ccc2c(c1)OCO2)N1CCCCC1` [PIPERINE], in the data set on Hamster, the Activity was determined as 3.89%.
Consider `CC1(C)C[C@H]2C3=CC[C@@H]4[C@@]5(C)CC[C@H](O[C@@H]6O[C@H](CO[C@@H]7OC[C@@H](O)[C@H](O)[C@H]7O[C@@H]7O[C@H](CO)[C@@H](O)[C@H](O)[C@H]7O)[C@@H](O)[C@H](O)[C@H]6O[C@@H]6O[C@H](CO)[C@@H](O)[C@H](O)[C@H]6O)C(C)(C)[C@@H]5CC[C@@]4(C)[C@]3(C)C[C@@H](O)[C@@]23C[C@@H]1OC3=O`, for which, in the data set listed under Rattus norvegicus [1], the Activity was determined as 100%.
On to `CC(C)[C@]12O[C@H]1[C@@H]1O[C@]13[C@]1(O[C@H]1C[C@H]1C4=C(CC[C@@]13C)C(=O)OC4)[C@@H]2O` [TRIPTOLIDE], for which the Activity with Rattus norvegicus [2] is recorded as 100%.
Turning to `C[C@@H]1C[C@H](O)[C@]2(O)O[C@@H]3C[C@@]4(C=O)[C@@H](CC[C@@H]5[C@@H]4CC[C@]4(C)[C@@H](C6=CC(=O)OC6)CC[C@]54O)C[C@H]3O[C@@H]2O1` [CALOTROPIN], the Activity in the data set with Meriones unguiculatus turned out to be 65.2%; in the data set with Oryctolagus cuniculus, 94%.
A word on the LD50: it is the dose at which mortality reaches 50%. `C=C1CC/C=C(/C)CC[C@@H]2[C@@H]1CC2(C)C` [CARYOPHYLLENE]: the Activity is reported as 20.8 10^6/ml in the data set filed under Rattus norvegicus [3], 57.4% in the data set listed under Rattus norvegicus [4] and 36.2% in the data set filed under Rattus norvegicus [5]. The LD50 in [6] was above 5000 mg/kg.
In the case of `C=C(C)[C@@H]1CC[C@]2(C)CC[C@]3(C)[C@H](CC[C@@H]4[C@@]5(C)CC[C@H](O)C(C)(C)[C@@H]5CC[C@]43C)[C@@H]12` [LUPEOL], the Activity with Rattus norvegicus [7] is on record as 100%.
Take `CC(C)[C@]12O[C@H]1[C@@H]1O[C@@]13[C@@]1(C)CCC4=C(COC4=O)[C@@H]1C[C@@H]1O[C@@]13C2=O` [TRIPTONIDE]: the LD50 in data set [8] was 300 mg/kg; in [9], 980 mg/kg. In the data set filed under Mus musculus [10], the EC50 was determined as 0.9 mg/kg. The Activity in the data set on Mus musculus [11] and in the data set with Mus musculus [12] was 100% throughout.
Take `CC1(C)CC[C@]2(C(=O)O)CC[C@]3(C)C(=CC[C@@H]4[C@@]5(C)CC[C@H](O)C(C)(C)[C@@H]5CC[C@]43C)[C@@H]2C1` [OLEANOLIC_ACID]: the Activity in the data set listed under Mus musculus [13] amounted to 60%.
The term inhibition denotes the percentage by which the read-out fell short of the control. As for `Oc1cc(O)c2c(c1)O[C@H](c1ccc(O)c(O)c1)[C@H](O)C2`, the inhibition in the data set listed under Homo sapiens worked out at 53%.
With `COC(=O)C1=CO[C@@H](O[C@@H]2O[C@H](CO)[C@@H](O)[C@H](O)[C@H]2O)[C@H]2[C@@H]1C=C[C@@]21C=C([C@H](C)O)C(=O)O1` [PLUMIERIDE], the Activity in the data set on Rattus norvegicus [14] was determined as 87%; in the data set on Rattus norvegicus [15], 29%; in the data set on Rattus norvegicus [16], 59%.
As for `CC1(C)C[C@H]2C3=CC[C@@H]4[C@@]5(C)CC[C@H](O[C@@H]6O[C@H](CO[C@@H]7OC[C@@H](O)[C@H](O)[C@H]7O[C@@H]7OC[C@@H](O)[C@H](O)[C@H]7O)[C@@H](O)[C@H](O)[C@H]6O)C(C)(C)[C@@H]5CC[C@@]4(C)[C@]3(C)C[C@@H](O)[C@@]23C[C@@H]1OC3=O`, in the data set filed under Rattus norvegicus [1], the Activity stood at 100%.
Turning to `CC1(C)C[C@H]2C3=CC[C@@H]4[C@@]5(C)CC[C@H](O[C@@H]6O[C@H](CO[C@@H]7OC[C@@H](O)[C@H](O)[C@H]7O[C@@H]7O[C@H](CO)[C@@H](O)[C@H](O)[C@H]7O)[C@@H](O)[C@H](O)[C@H]6O)C(C)(C)[C@@H]5CC[C@@]4(C)[C@]3(C)C[C@@H](O)[C@@]23C[C@@H]1OC3=O`, the Activity in the data set filed under Rattus norvegicus [1] turned out to be 100%.
On to `CCCCCCCCCCCC1=C(O)C(=O)C=C(O)C1=O` [EMBELIN], for which the Activity in the data set listed under Rattus norvegicus [17] was 9.5%.
